Source: US5358936A, “Anionic furanose derivatives, methods of making and using the same” (Gordon; Paul, priority 1991, dated 1994)
Counter-ions that a name gives are not always drawn. Like-named read-outs stand apart in the source and are kept apart here.

Key:
rat paw = assay: Rat paw edema provoked by neutral proteases (Example 32); assay type: in vivo; conditions: two hours; SOD IV; Compound III IP and IV
Description: Both tryptic activity and collagenase activity are components of the tissue-injuring neutral proteinase activities secreted by neutrophils. Collagenase activity has also been associated with injury to cartilage; and, in another context, with the micro-injury to blood vessels that permits the extravasation and metastasis of, and by, tumor cells.
The effects of Compound III on rat and mouse paw edema as provoked by injection of these enzymes were evaluated. SOD injected IV and Compound III injected IP and IV at zero time, (as in Example 25), inhibited edema at two hours by from 33-40 percent, in both species. […] Both drug effects were significant by t test, SOD at P<0.05 and Compound III at P<0.01.

gastric ulcers = conditions: 50 mg/kg oral gavage 45 minutes before; for Frequency of ulcer-bearing rats: combined groups P<0.01
Description: In this method, a relatively large amount of ethanol is administered to rats by oral gavage (1.0 ml/200 gm), a procedure widely used to produce ordinary gastric ulceration. This injection, however, is given in combination with the intraperitoneal injection of heparin sulfate (10 mg/kg).
Compound III treatment was 50 mg/kg by oral garage in distilled water as diluent, at 45 minutes before ulcer induction.
The effects of ethanol alone and ethanol plus Compound III were assessed four hours after ethanol administration. The effects of ethanol plus heparin and ethanol plus heparin plus Compound III were assessed 24 hours after administration of the ulcer inducing combination. Ulcer formation was assessed as discussed in Example 20.
In this and the following examples, the potassium salt of the drug indicated by a Roman numeral was used; i.e., M is potassium (K^+).

`CC1(C)O[C@H]2O[C@H]([C@@H](COS(=O)(=O)O)OS(=O)(=O)O)[C@H](OS(=O)(=O)O)[C@H]2O1` [Compound III, 1,2-O-(2-Propylidene)-3,5,6-tri-O-sulfo-α-D-glucofuranose, tripotassium salt] was tested, and the inhibition of edema (rat paw) was 33-40%, the “Frequency of rats with bleeding ulcers” value (gastric ulcers; ethanol + heparin, 24 hours, P<0.01) was 0% of Total in Group and the “Frequency of ulcer-bearing rats” value (gastric ulcers; ethanol + heparin, 24 hours) was 25% of Total in Group. The “Frequency of rats with bleeding ulcers” value (gastric ulcers; ethanol, four hours) was 0% of Total in Group and the “Frequency of ulcer-bearing rats” value (gastric ulcers; ethanol, four hours) was 11% of Total in Group.
